{"source": "patent US20060009642A1", "about": "“Methods for the synthesis of substituted purines” (IRM LLC, a Delaware Limited Liability Company, priority 2001, published 2006)", "origin": "cited, not measured here", "test_system": "cyclin-dependent kinase 1 (CDK1)", "details": "binds to the ATP-binding site; Arris et al., J. Med. Chem. 43, 2797 (2000)", "data": [{"molecule": "Nc1nc(OCC2CCCCC2)c2[nH]cnc2n1", "note": "[O6-cyclohexylmethylguanine]", "values": [{"measurement": "inhibition of CDK1, mode of inhibition", "value": "competitive inhibitor"}]}]}
